Measured values published in ChEMBL document CHEMBL5634137, “2,4-Diacetylphloroglucinol (DAPG) derivatives rapidly eradicate methicillin-resistant staphylococcus aureus without resistance development by disrupting membrane” (Eur J Med Chem, 2023).
Converted amounts (≈) assume the structure as drawn. The source made the active and inactive calls. No cut-off for these calls is given here.

Key:
[1] = test system: Staphylococcus aureus; experiment: Synergistic antibacterial activity against Methicillin-resistant Staphylococcus aureus USA300 infected in mouse skin infection model assessed as reduction in number of bacteria at 10 mg/kg, sc in presence of oxacillin administered every 12 hrs for 3 days; format: functional; details: time 3 day
[2] = test system: Cell membrane; experiment: Induction of inner membrane permeabilization in Staphylococcus aureus USA300 assessed as increase in fluorescence intensity at 1 times MIC incubated for 90 mins by SYTOX staining based analysis
[3] = test system: Staphylococcus aureus; experiment: Synergistic antibacterial activity against Methicillin-resistant Staphylococcus aureus USA300 assessed as amoxicillin MIC incubated for 24 hrs by checkboard method (reference value: 8 microg/ml); format: functional
[4] = test system: Cell membrane; experiment: Induction of cell membrane damage in Staphylococcus aureus USA300 assessed as nucleic acid leakage at 4 to 8 times MIC measured for 3 hrs by confocal laser scanning microscopic analysis; format: cell membranes
[5] = test system: Staphylococcus aureus; experiment: Antibiofilm activity against Methicillin-resistant Staphylococcus aureus USA300 assessed as inhibition of biofilm formation at 0.5 times MIC by crystal violet staining based assay; format: functional; parameters: scale not given: the % may be the effect or the level left
[6] = test system: Staphylococcus aureus; experiment: Inhibition of staphyloxanthin biosynthesis in Methicillin-resistant Staphylococcus aureus ATCC 3392 assessed as reduction in 4,4-Diapophytoene formation at 0.125 to 0.625 times MIC by nanodrop spectrophotometer analysis; format: functional, organism-based
[7] = test system: Staphylococcus aureus; experiment: Induction of resistance development in methicillin resistant Staphylococcus aureus USA300 assessed as fold increase in MIC measured upto 65 days; format: functional; details: time <= 65.0 day
[8] = test system: Staphylococcus aureus; experiment: Bactericidal activity against methicillin-resistant Staphylococcus aureus ATCC 3392 assessed as inhibition of bacterial growth incubated for 24 hrs by broth dilution method; format: functional
[9] = test system: Staphylococcus aureus; experiment: Antibacterial activity against Methicillin-resistant Staphylococcus aureus USA300 assessed as inhibition of bacterial growth incubated for 24 hrs by broth dilution method; format: functional
[10] = test system: Klebsiella pneumoniae; experiment: Antibacterial activity against Klebsiella pneumoniae […] assessed as inhibition of bacterial growth incubated for 24 hrs by broth dilution method; format: functional
[11] = test system: Cell membrane; experiment: Induction of inner membrane permeabilization in Staphylococcus aureus USA300 assessed as increase in fluorescence intensity incubated for 90 mins by SYTOX staining based analysis; format: cell membranes
[12] = test system: Staphylococcus aureus; experiment: Additive antibacterial activity against Methicillin-resistant Staphylococcus aureus USA300 assessed as doxycycline MIC incubated for 24 hrs by checkboard method(reference value: 0.125 microg/ml); format: functional
[13] = test system: Staphylococcus aureus; experiment: Synergistic antibacterial activity against Methicillin-resistant Staphylococcus aureus USA300 assessed as oxacillin MIC incubated for 24 hrs by checkboard method (reference value: 2 microg/ml); format: functional
[14] = Cytotoxicity against human L02 cells assessed as survival rate incubated for 24 hrs by MTT assay; format: toxicity, cell-based; parameters: concentration or dose not given beside the values; details: read-out: Survival
[15] = test system: Cell membrane; experiment: Induction of cell membrane damage in Staphylococcus aureus USA300 assessed as nucleic acid leakage at 1 to 2 times MIC by confocal laser scanning microscopic analysis; format: cell membranes
[16] = test system: Staphylococcus aureus; experiment: Antibiofilm activity against Methicillin-resistant Staphylococcus aureus USA300 assessed as inhibition of biofilm formation at 0.25 times MIC by crystal violet staining based assay; format: functional; parameters: scale not given: the % may be the effect or the level left
[17] = test system: Staphylococcus aureus; experiment: Antibiofilm activity against Methicillin-resistant Staphylococcus aureus USA300 assessed as biofilm eradication at 16 times MIC by crystal violet staining based assay; format: functional
[18] = test system: Staphylococcus aureus; experiment: Antibacterial activity against Methicillin-resistant Staphylococcus aureus USA300 assessed as decrease in number of colonies incubated for 0.5 hrs by time-kill kinetics assay; format: functional, organism-based
[19] = test system: Cell membrane; experiment: Induction of inner membrane permeabilization in Staphylococcus aureus USA300 assessed as increase in fluorescence intensity at 2 times MIC incubated for 40 mins by SYTOX staining based analysis; format: cell membranes
[20] = test system: Staphylococcus aureus; experiment: Induction of morphological changes in Staphylococcus aureus USA300 assessed as appearance of wrinkled cell surface at 2 to 4 times MIC by SEM analysis; format: functional, organism-based
[21] = test system: Pseudomonas aeruginosa; experiment: Antibacterial activity against Pseudomonas aeruginosa […] assessed as inhibition of bacterial growth incubated for 24 hrs by broth dilution method; format: functional
[22] = test system: Staphylococcus aureus; experiment: Antibacterial activity against Methicillin-resistant Staphylococcus aureus USA300 infected in mouse skin infection model assessed as reduction in number of bacteria at 10 mg/kg, sc administered every 12 hrs for 3 days; format: functional; details: time 3 day
[23] = test system: Staphylococcus aureus; experiment: Antibiofilm activity against Methicillin-resistant Staphylococcus aureus USA300 assessed as biofilm eradication at 32 times MIC by crystal violet staining based assay; format: functional
[24] = test system: Staphylococcus aureus; experiment: Inhibition of staphyloxanthin biosynthesis in Methicillin-resistant Staphylococcus aureus ATCC 3392 assessed as reduction in Staphyloxanthin formation at 0.125 to 0.625 times MIC by nanodrop spectrophotometer analysis; format: functional, organism-based
[25] = test system: Staphylococcus aureus; experiment: Selectivity index, ratio of MBC for bactericidal against methicillin-resistant Staphylococcus aureus ATCC 3392 to MIC for antibacterial activity against methicillin-resistant Staphylococcus aureus ATCC 3392; format: functional
[26] = test system: Staphylococcus aureus; experiment: Antibacterial activity against methicillin-resistant Staphylococcus aureus ATCC 3392 assessed as inhibition of bacterial growth incubated for 24 hrs by broth dilution method; format: functional
[27] = test system: Staphylococcus aureus; experiment: Inhibition of staphyloxanthin biosynthesis in Methicillin-resistant Staphylococcus aureus ATCC 3392 assessed as reduction in 4,4-diaponeurosporenic acid formation at 0.125 to 0.625 times MIC by nanodrop spectrophotometer analysis; format: functional, organism-based
[28] = test system: Staphylococcus aureus; experiment: Bactericidal against methicillin-resistant Staphylococcus aureus ATCC 4330 assessed as inhibition of bacterial growth incubated for 24 hrs by broth dilution method; format: functional
[29] = test system: Staphylococcus aureus; experiment: Induction of morphological changes in Staphylococcus aureus USA300 assessed as appearance of broken cell surface at 2 to 4 times MIC by SEM analysis; format: functional, organism-based
[30] = test system: Escherichia coli; experiment: Antibacterial activity against Escherichia coli ATCC 11775 assessed as inhibition of bacterial growth incubated for 24 hrs by broth dilution method; format: functional
[31] = test system: Staphylococcus aureus; experiment: Antibacterial activity against Methicillin-resistant Staphylococcus aureus USA300 assessed as decrease in number of colonies at 0.5 times MIC incubated for 2 to 5 hrs by time-kill kinetics assay; format: functional, organism-based; details: time 2-5 hrs
[32] = test system: Staphylococcus aureus; experiment: Induction of resistance development in methicillin resistant Staphylococcus aureus USA300 at 25 to 150 microg/ml measured upto 65 days; format: functional; details: dose 25-150 µg/ml, time <= 65.0 day
[33] = test system: Cell membrane; experiment: Induction of cell membrane damage in Staphylococcus aureus USA300 assessed as increase in red fluorescence intensity at 2 times MIC by confocal laser scanning microscopic analysis; format: cell membranes
[34] = Toxicity in mouse assessed as change in body weight at 10 mg/kg, sc administered every 12 hrs for 4 days; format: organism-based; details: in vivo, 96 h, time 4 day
[35] = test system: Staphylococcus aureus; experiment: Synergistic antibacterial activity against Methicillin-resistant Staphylococcus aureus USA300 assessed as fractional inhibitory concentration index in presence of oxacillin by checkboard method; format: functional
[36] = test system: Cell membrane; experiment: Induction of cell membrane damage in Staphylococcus aureus USA300 assessed as intracellular ATP leakage at 1 to 8 times MIC by confocal laser scanning microscopic analysis; format: cell membranes
[37] = test system: Staphylococcus aureus; experiment: Synergistic antibacterial activity against Methicillin-resistant Staphylococcus aureus USA300 assessed as fractional inhibitory concentration index in presence of amoxicillin by checkboard method; format: functional
[38] = test system: Cell membrane; experiment: Induction of cell membrane damage in Staphylococcus aureus USA300 assessed as intracellular ATP leakage at 16 times MIC by confocal laser scanning microscopic analysis; format: cell membranes
[39] = Cytotoxicity against mouse RAW264.7 cells assessed as survival rate incubated for 24 hrs by MTT assay; format: toxicity, cell-based; parameters: concentration or dose not given beside the values; details: read-out: Survival
[40] = test system: Staphylococcus aureus; experiment: Antibacterial activity against methicillin-resistant Staphylococcus aureus ATCC 4330 assessed as inhibition of bacterial growth incubated for 24 hrs by broth dilution method; format: functional
[41] = test system: Staphylococcus aureus; experiment: Antibacterial activity against Methicillin-resistant Staphylococcus aureus USA300 assessed as decrease in number of colonies at 1 to 4 times MIC incubated upto 8 hrs by time-kill kinetics assay; format: functional, organism-based
[42] = test system: Staphylococcus aureus; experiment: Additive antibacterial activity against Methicillin-resistant Staphylococcus aureus USA300 assessed as fractional inhibitory concentration index in presence of doxycycline by checkboard method; format: functional
[43] = test system: Staphylococcus aureus; experiment: Inhibition of staphyloxanthin biosynthesis in Methicillin-resistant Staphylococcus aureus ATCC 3392 assessed as reduction in 4,4-Diaponeurosporene formation at 0.125 to 0.625 times MIC by nanodrop spectrophotometer analysis; format: functional, organism-based

Question: What does the source list for `CCCCCCC(=O)c1c(O)cc(O)c(C(=O)CCCCCC)c1O`?
Answer: Activity [1]: 2.5 log10CFU/g; Activity [2]: Active; MIC [3]: 0.125 µg/mL; Activity [4]: Active; Activity [5]: 95%; inhibition [6]: inactive; fold change (FC) [7]: 256; MBC [8]: 1 µg/mL (≈ 2.85 µM); MIC [9]: 0.5 µg/mL (≈ 1.43 µM); MIC [10]: > 64 µg/mL; Activity [11]: Dose-Dependent Effect; MIC [12]: 0.25 µg/mL; MIC [13]: 0.125 µg/mL; viability at 24 h [14]: 75%; Activity [15]: inactive; Activity [16]: 58%; Activity [17]: 37%; Activity [18]: Dose-Dependent Effect; Activity [19]: Active; Activity [20]: Active; MIC [21]: > 64 µg/mL; Activity [22]: 1.5 log10CFU/g; Activity [23]: ~50%; inhibition [24]: Active; Selectivity Index [25]: 1; MIC [26]: 1 µg/mL (≈ 2.85 µM); inhibition [27]: Active; MBC [28]: 1 µg/mL (≈ 2.85 µM); Activity [29]: Active; MIC [30]: > 64 µg/mL; Activity [31]: Active; Activity [32]: Active; Activity [33]: Active; Activity [34]: Non-Toxic; fractional inhibitory concentration index (FICI) [35]: 0.375; Activity [36]: Active; fractional inhibitory concentration index (FICI) [37]: 0.312; Activity [38]: 70%; viability at 24 h [39]: 76%; MIC [40]: 0.5 µg/mL (≈ 1.43 µM); Activity [41]: Active; fractional inhibitory concentration index (FICI) [42]: 0.75; inhibition [43]: Active
